Measured values published in US11873298B2, “Compounds and uses thereof” (JANSSEN PHARMACEUTICA NV, priority 2017, dated 2024).

Columns and labels:
SCD5 = biological target: T1, SCD5 (Homo sapiens, UniProt Q86SK9); assay: Growth inhibition of humanized yeast strain expressing SCD5 as sole desaturase; type: cell-based
T1 construct: host or cells: S. cerevisiae ole1Δ strain (W303 pdr1Δ pdr3Δ background), plasmid pRS316 with TDH3 promoter and CYC1 terminator
T1 sequence (Q86SK9 1-330): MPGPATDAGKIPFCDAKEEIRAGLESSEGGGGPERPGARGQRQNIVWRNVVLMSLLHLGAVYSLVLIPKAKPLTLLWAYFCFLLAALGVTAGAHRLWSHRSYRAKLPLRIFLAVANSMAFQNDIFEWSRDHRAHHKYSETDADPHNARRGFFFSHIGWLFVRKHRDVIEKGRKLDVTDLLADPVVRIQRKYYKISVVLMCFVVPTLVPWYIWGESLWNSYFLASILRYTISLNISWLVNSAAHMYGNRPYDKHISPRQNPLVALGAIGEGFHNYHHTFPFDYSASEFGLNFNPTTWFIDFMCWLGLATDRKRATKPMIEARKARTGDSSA
Outline: (§1)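 Yeast ole1Δ strain (W303 pdr1Δ pdr3Δ background) carrying plasmid-borne Ole1, SCD1 or SCD5 as sole desaturase was grown in uracil-lacking media, pre-cultured in raffinose for 6 h, then seeded in galactose medium with compound in DMSO. Growth was read as OD600 after 30° C. incubation: 24 h for Ole1, 40 h for SCD1/SCD5.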

SCD1 = biological target: T2, SCD1 (Homo sapiens, UniProt O00767); assay: Growth inhibition of humanized yeast strain expressing SCD1 as sole desaturase; type: cell-based
T2 construct: host or cells: S. cerevisiae ole1Δ strain (W303 pdr1Δ pdr3Δ background), plasmid pRS316 with TDH3 promoter and CYC1 terminator
T2 sequence (O00767 1-359): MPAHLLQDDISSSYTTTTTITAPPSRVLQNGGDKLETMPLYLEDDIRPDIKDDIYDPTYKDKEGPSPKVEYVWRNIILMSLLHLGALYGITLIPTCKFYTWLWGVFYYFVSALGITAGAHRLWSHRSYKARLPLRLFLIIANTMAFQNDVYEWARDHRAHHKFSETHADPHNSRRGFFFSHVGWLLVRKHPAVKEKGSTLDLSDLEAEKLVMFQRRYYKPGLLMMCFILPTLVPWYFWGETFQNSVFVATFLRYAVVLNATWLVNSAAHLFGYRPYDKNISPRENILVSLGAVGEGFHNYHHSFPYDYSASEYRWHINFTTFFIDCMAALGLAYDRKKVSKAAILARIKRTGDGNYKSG
Outline: as §1

[1] = growth inhibition of humanized yeast strain expressing human SCD5
[2] = growth inhibition of humanized yeast strain expressing human SCD1

| Compound | IC50 (SCD5; humanized yeast strain, 40 h) [nM] | IC50 (SCD1; humanized yeast strain, 40 h) [nM] | IC50 (SCD5; [1]) [nM] | IC50 (SCD1; [2]) [nM] |
| --- | --- | --- | --- | --- |
| CC(C)C(=O)N1CC[C@@H](c2noc(-c3ccc4cnn(C5COC5)c4c3)n2)C[C@@H]1C [Compound 1055] | 4.88 | > 45000 |  |  |
| CC(C)(C)OC(=O)N1CCC(c2nnc(-c3ccc4cnn(C5CCOC5)c4c3)o2)CC1 (stereo not drawn) [Compound 971] | 89 | > 45000 |  |  |
| COC(=O)N1CCC(c2noc(-c3ccc4cnn(C5CNC5)c4c3)n2)CC1 [Compound 948] | > 45000 | > 45000 |  |  |
| O=C(C1CCC1)N1CCN(c2nnc(-c3ccc4cnn(C5COC5)c4c3)o2)CC1 [Compound 996] | 5040 | > 45000 |  |  |
| CC(C)n1ccc2ccc(-c3nc(C4CCN(C(=O)OC(C)(C)C)CC4)no3)cc21 [Compound 1048] | 16 | > 45000 |  |  |
| COC(=O)N1CCC(c2noc(-c3cc4c(cnn4C4COC4)cc3F)n2)CC1 [Compound 944] | 2220 | > 45000 |  |  |
| CC(C)n1ncc2ccc(-c3noc(C4CCN(C(=O)OC(C)(C)C)C=C4F)n3)cc21 (stereo not drawn) [Compound 660] |  |  | 14600 | > 45000 |
| CC(C)n1ncc2ccc(-c3noc([C@H]4CC[C@H](O)CC4)n3)cc21 [Compound 634] |  |  | ≥ 45000 | > 45000 |
| CC(C)n1ncc2ccc(-c3nc(C4CCN(C(=O)c5ncccc5F)CC4)no3)cc21 [Compound 714] |  |  | 230 | > 45000 |
| CC(C)(C)OC(=O)N1CCC(c2nc(-c3ccc4cn(C5CN(C(=O)OC(C)(C)C)C5)nc4c3)no2)CC1 [Compound 656] |  |  | > 45000 | > 45000 |
| CC1(C(=O)N2CCN(c3nc(-c4ccc5cnn(C6COC6)c5c4)no3)CC2)CCCO1 (stereo not drawn) [Compound 916] | 10 | 1960 |  |  |
| CC(C)(C)OC(=O)N1CCC(c2noc(-c3ccnc(OC4COC4)c3)n2)CC1 [Compound 982] | 327 | 10 |  |  |
| CC(C)n1ncc2ccc(-c3noc(C4CCN(Cc5ncco5)CC4)n3)cc21 [Compound 615] |  |  | 1880 | 848 |
| COC(=O)N1CCC(c2noc(-c3ccc4cnn(C5CCCC5)c4c3)n2)CC1 [Compound 1042] | 79 | > 45000 |  |  |
| O=C(CC1CC1)N1CCC(c2noc(-c3ccnc(C4CCOC4)c3)n2)CC1 (stereo not drawn) [Compound 1100] | 738 | > 45000 |  |  |
| Cc1ncc2n1CCN(c1noc(-c3ccc4cnn(C5COC5)c4c3)n1)C2 [Compound 949] | > 45000 | > 45000 |  |  |
| CC(C)(C)OC(=O)N1CCC(c2noc(-c3ccc4ccn(C5COC5)c4c3)n2)CC1 [Compound 1039] | 10 | 15700 |  |  |
| CC(C)(C)OC(=O)N1CCN(c2nc(-c3ccc4cnn(C5CCC5)c4c3)no2)CC1 [Compound 721] |  |  | 1650 | > 45000 |
